Measured values published in US20100029657A1, “Bridged, Bicyclic Heterocyclic or Spiro Bicyclic Heterocyclic Derivatives of Pyrazolo[1, 5-A]Pyrimidines, Methods for Preparation and Uses Thereof” (Wyeth, priority 2008, published 2010).
Counter-ions that a name gives are not always drawn.

Target: T1, Flag/GST-tagged recombinant human B-Raf (Homo sapiens, UniProt P15056)
T1 construct: Flag; GST; made in house; host or cells: Sf9 insect cells (B-Raf); E. coli (MEK1-GST)
Test: B-Raf kinase assay (phosphorylation of GST-MEK1, phospho-MEK1 antibody/Europium detection)
Format: biochemical
Settings: B-Raf IC50 Data for compounds of Formula A; read-out: Mean IC50
Method: B-Raf1 Kinase Assay Procedure: B-Raf-1 is used to phosphorylate GST-MEK1.
• 1. Assay Dilution Buffer (ADB): 20 mM MOPS, pH 7.2, 25 mM β-glycerol phosphate, 5 mM EGTA, 1 mM sodium orthovanadate, 1 mM dithiothreitol, 0.01% Triton X-100. • 2. Magnesium/ATP Cocktail: ADB solution (minus Triton X-100) plus 200 μM cold ATP and 40 mM magnesium chloride. • 4. Active Kinase: Active B-Raf: Used at 0.2 nM per assay point. • 5. […] TBST—Tris (50 mM, pH 7.5), NaCl (150 mM), Tween-20 (0.05%) • 7. Anti-GST Ab (GE) • 8. Anti pMEK Ab (Upstate) • 9. Anti-rabbit Ab/Europium conjugate (Wallac).
B-Raf Assay Procedure: • 1. Added 25 μL of ADB containing B-Raf and Mek per assay (i.e. per well of a 96 well plate) • 2. Added 25 μL of 0.2 mM ATP and 40 mM magnesium chloride in Magnesuium/ATP Cocktail. • 3. Incubated for 45 minutes at RT with occasional shaking. • 4. Transferred this mixture to an anti-GST Ab coated 96 well plate (Nunc Immunosorb plates coated o/n with a-GST. Plate freshly washed 3×with TBS-T before use. • 5. Incubated o/n at […] in cold room. • 6. Washed 3× with TBST, ed Anti-Phospho MEK1 (1:1000, dilution depended upon lot) • 7. Incubated for 60 minutes at RT in a shaking incubator • 8. Washed 3× with TBST, add Anti-rabbit Ab/Europium conjugate (Wallac) (1:500, dilution depended upon lot) • 9. Incubated for 60 minutes at RT on a platform shaker. • 10. Washed plate 3× with TBS-T • 11. Added 100 μL of Wallac Delfia Enhancement Solution and agitated for 10 minutes. • 12. Read plates in Wallac Victor model Plate Reader. • 13.
The % inhibition was determined for each compound concentration.

T1 sequence (P15056 whole entry): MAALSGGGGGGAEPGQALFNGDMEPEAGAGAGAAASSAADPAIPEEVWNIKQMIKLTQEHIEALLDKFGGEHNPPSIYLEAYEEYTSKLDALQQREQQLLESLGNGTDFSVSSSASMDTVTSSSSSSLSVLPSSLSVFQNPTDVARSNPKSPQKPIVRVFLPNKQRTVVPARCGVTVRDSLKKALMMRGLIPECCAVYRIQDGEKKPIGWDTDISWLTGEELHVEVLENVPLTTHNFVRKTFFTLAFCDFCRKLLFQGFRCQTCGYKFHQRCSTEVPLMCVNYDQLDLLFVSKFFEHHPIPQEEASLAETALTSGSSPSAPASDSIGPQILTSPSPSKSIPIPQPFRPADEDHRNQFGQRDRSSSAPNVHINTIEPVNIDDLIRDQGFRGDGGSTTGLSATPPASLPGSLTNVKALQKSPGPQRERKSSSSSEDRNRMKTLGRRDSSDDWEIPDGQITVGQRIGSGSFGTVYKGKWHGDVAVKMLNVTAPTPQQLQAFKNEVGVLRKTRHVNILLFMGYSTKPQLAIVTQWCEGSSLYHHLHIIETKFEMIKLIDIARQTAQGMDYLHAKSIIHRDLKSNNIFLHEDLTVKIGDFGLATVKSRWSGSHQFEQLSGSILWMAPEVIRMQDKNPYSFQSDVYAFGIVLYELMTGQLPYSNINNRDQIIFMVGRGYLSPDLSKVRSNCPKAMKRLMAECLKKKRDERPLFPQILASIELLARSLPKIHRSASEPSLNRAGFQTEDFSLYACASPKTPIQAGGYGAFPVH

Row | Compound | IC50 [nM]
1 | CC(C)CN1C[C@@H]2C[C@H]1CN2c1cc(F)c(-c2ccnc3c(-c4cccc5[nH]ncc45)c(-c4ccncc4)nn23)c(F)c1 [Example 168, 7-{2,6-difluoro-4-[(1S,4S)-5-isobutyl-2,5-diazabicyclo[2.2.1]hept-2-yl]phenyl}-3-(1H-indazol-4-yl)-2-pyridin-4-ylpyrazolo[1,5-a]pyrimidine] | < 0.3
2 | c1cc(-c2c(-c3ccncc3)nn3c(C4CCC5(CC4)OCCO5)ccnc23)c2cn[nH]c2c1 [Example 142, 7-(1,4-dioxaspiro[4.5]dec-8-yl)-3-(1H-indazol-4-yl)-2-pyridin-4-ylpyrazolo[1,5-a]pyrimidine] | 2.2
3 | CN1C[C@@H]2C[C@H]1CN2c1ccc(-c2ccnc3c(-c4cccc5[nH]ncc45)c(-c4ccncc4)nn23)c(F)c1 [Example 94, 7-{2-Fluoro-4-[(1S,4S)-5-methyl-2,5-diazabicyclo[2.2.1]hept-2-yl]phenyl}-3-(1H-indazol-4-yl)-2-pyridin-4-yl pyrazolo[1,5-a]pyrimidine] | 0.1
4 | CN1C[C@@H]2C[C@H]1CN2c1ccc(-c2ccnc3c(-c4ccc(F)c5[nH]ncc45)c(-c4ccncc4)nn23)cc1 [Example 104, 3-(7-fluoro-1H-indazol-4-yl)-7-{4-[(1S,4S)-5-methyl-2,5-diazabicyclo[2.2.1]hept-2-yl]phenyl}-2-pyridin-4-ylpyrazolo[1,5-a]pyrimidine hydrochloride] | 0.24
5 | Fc1cc(CN2C[C@@H]3C[C@H]2CO3)ccc1-c1ccnc2c(-c3cccc4[nH]ncc34)c(-c3ccncc3)nn12 [Example 206, 7-{2-fluoro-4-[(1S,4S)-2-oxa-5-azabicyclo[2.2.1]hept-5-ylmethyl]phenyl}-3-(1H-indazol-4-yl)-2-pyridin-4-ylpyrazolo[1,5-a]pyrimidine] | 1.5
6 | CCNC(=O)N1C2CCC1CC(c1ccnc3c(-c4cccc5[nH]ncc45)c(-c4ccncc4)nn13)C2 (stereo not drawn) [Example 118, N-ethyl-3-[3-(1H-indazol-4-yl)-2-pyridin-4-ylpyrazolo[1,5-a]pyrimidin-7-yl]-8-azabicyclo[3.2.1]octane-8-carboxamide] | 6.7
7 | CN1C[C@@H]2C[C@H]1CN2c1ccc(-c2ccnc3c(-c4cccc5[nH]ncc45)c(-c4ccncc4)nn23)c(F)c1 [Example 53, 7-(2-Fluoro-4-((1S,4S)-5-methyl-2,5-diazabicyclo[2.2.1]heptan-2-yl)phenyl)-3-(1H-indazol-4-yl)-2-(pyridin-4-yl)pyrazolo[1,5-a]pyrimidine] | < 0.3
8 | CN1C[C@@H]2CC[C@H]1CN2c1ccc(-c2ccnc3c(-c4cccc5[nH]ncc45)c(-c4ccncc4)nn23)cc1 [Example 143, 3-(1H-indazol-4-yl)-7-{4-[(1S,4S)-5-methyl-2,5-diazabicyclo[2.2.2]oct-2-yl]phenyl}-2-pyridin-4-ylpyrazolo[1,5-a]pyrimidine] | 0.7
9 | Fc1cc(N2C[C@@H]3C[C@H]2CN3)c(F)cc1-c1ccnc2c(-c3cccc4[nH]ncc34)c(-c3ccncc3)nn12 [Example 163, 7-{4-[(1S,4S)-2,5-diazabicyclo[2.2.1]hept-2-yl]-2,5-difluorophenyl}-3-(1H-indazol-4-yl)-2-pyridin-4-ylpyrazolo[1,5-a]pyrimidine] | < 0.3
10 | c1cc(-c2c(-c3ccncc3)nn3c2nccc3[C@H]2CC[C@@H](N3C[C@@H]4C[C@H]3CN4)CC2)c2cn[nH]c2c1 [Example 149, 7-{cis-4-[(1S,4S)-2,5-diazabicyclo[2.2.1]hept-2-yl]cyclohexyl}-3-(1H-indazol-4-yl)-2-pyridin-4-ylpyrazolo[1,5-a]pyrimidine] | 3.2
11 | CCN1C2CCC1CC(c1ccnc3c(-c4cc(F)c(Cl)c5[nH]ncc45)c(-c4ccncc4)nn13)C2 (stereo not drawn) [Example 82, 3-(7-Chloro-6-fluoro-1H-indazol-4-yl)-7-(8-ethyl-8-azabicyclo[3.2.1]oct-3-yl)-2-pyridin-4-ylpyrazolo[1,5-a]pyrimidine, trifluoro acetate salt] | 2
12 | CCN1C[C@@H]2C[C@H]1CN2c1ccc(-c2ccnc3c(-c4ccc(F)c(O)c4)c(-c4ccncc4)nn23)cc1 [Example 38, 5-(7-(4-((1S,4S)-5-Ethyl-2,5-diazabicyclo[2.2.1]heptan-2-yl)phenyl)-2-(pyridin-4-yl)pyrazolo[1,5-a]pyrimidin-3-yl)-2-fluorophenol] | 0.5
13 | C[N+]1([O-])C[C@@H]2C[C@H]1CN2c1cc(F)c(-c2ccnc3c(-c4cccc5[nH]ncc45)c(-c4ccncc4)nn23)c(F)c1 (stereo partly drawn) [Example 192, 7-{2,6-difluoro-4-[(1S,4S)-5-methyl-5-oxido-2,5-diazabicyclo[2.2.1]hept-2-yl]phenyl}-3-(1H-indazol-4-yl)-2-pyridin-4-ylpyrazolo[1,5-a]pyrimidine] | 0.4
14 | CN1C[C@@H]2C[C@H]1CN2c1ccc(-c2ccnc3c(-c4cccc(O)c4)c(-c4ccncc4)nn23)cc1 [Example 30, 3-{7-[4-((1S,4S)-5-Methyl-2,5-diaza-bicyclo[2.2.1]hept-2-yl)-phenyl]-2-pyridin-4-yl-pyrazolo[1,5-a]pyrimidin-3-yl}-phenol] | < 3
15 | c1cc(-c2c(-c3ccncc3)nn3c2nccc3[C@H]2CC[C@H](N3C[C@@H]4C[C@H]3CN4)CC2)c2cn[nH]c2c1 [Example 156, 7-{trans-4-[(1S,4S)-2,5-diazabicyclo[2.2.1]hept-2-yl]cyclohexyl}-3-(1H-indazol-4-yl)-2-pyridin-4-ylpyrazolo[1,5-a]pyrimidine] | 0.6
16 | CN1C[C@@H]2C[C@H]1CN2c1cc(F)ccc1-c1ccnc2c(-c3cccc4[nH]ncc34)c(-c3ccncc3)nn12 [Example 47, 7-(4-Fluoro-2-((1S,4S)-5-methyl-2,5-diazabicyclo[2.2.1]heptan-2-yl)phenyl)-3-(1H-indazol-4-yl)-2-(pyridin-4-yl)pyrazolo[1,5-a]pyrimidine] | 0.8

Now from value to molecule:

Row | IC50 [nM] | Compound
17 | 1 | Fc1ccc(-c2c(-c3ccncc3)nn3c2nccc3[C@H]2CC[C@@H](N3C[C@@H]4C[C@H]3CN4)CC2)c2cn[nH]c12 [Example 176, 7-{cis-4-[(1S,4S)-2,5-diazabicyclo[2.2.1]hept-2-yl]cyclohexyl}-3-(7-fluoro-1H-indazol-4-yl)-2-pyridin-4-ylpyrazolo[1,5-a]pyrimidine]
18 | 10 | c1cc(-c2c(-c3ccncc3)nn3c(-c4ccc(CN5C[C@@H]6C[C@H]5CO6)cc4)ccnc23)c2cn[nH]c2c1 [Example 204, 3-(1H-indazol-4-yl)-7-{4-[(1S,4S)-2-oxa-5-azabicyclo[2.2.1]hept-5-ylmethyl]phenyl}-2-pyridin-4-ylpyrazolo[1,5-a]pyrimidine]
19 | 2.04 | CC(C)(C)OC(=O)N1C[C@@H]2C[C@H]1CN2c1ccc(-c2ccnc3c(-c4ccc(F)c5[nH]ncc45)c(-c4ccncc4)nn23)cc1 [Example 102, tert-Butyl(1S,4S)-5-{4-[3-(7-fluoro-1H-indazol-4-yl)-2-pyridin-4-ylpyrazolo[1,5-a]pyrimidin-7-yl]phenyl}-2,5-diazabicyclo[2.2.1]heptane-2-carboxylate]
20 | 19.1 | CC(C)(C)OC(=O)N1C[C@@H]2C[C@H]1CN2c1ccc(-c2ccn3nc(-c4ccncc4)c(-c4ccc(F)c5[nH]ncc45)c3n2)cc1 [Example 122, tert-butyl (1S,4S)-5-{4-[3-(7-fluoro-1H-indazol-4-yl)-2-pyridin-4-ylpyrazolo[1,5-a]pyrimidin-5-yl]phenyl}-2,5-diazabicyclo[2.2.1]heptane-2-carboxylate]
21 | 6.3 | CN(C)c1cc(N2C[C@@H]3C[C@H]2CN3)ccc1-c1ccnc2c(-c3cccc4[nH]ncc34)c(-c3ccncc3)nn12 [Example 146, 5-[(1S,4S)-2,5-diazabicyclo[2.2.1]hept-2-yl]-2-[3-(1H-indazol-4-yl)-2-pyridin-4-ylpyrazolo[1,5-a]pyrimidin-7-yl]-N,N-dimethylaniline]
22 | 8.7 | COc1cc(-c2c(-c3ccncc3)nn3c(-c4ccc(N5C[C@@H]6C[C@H]5CN6)cc4)ccnc23)ccc1F [Example 32, 7-(4-((1S,4S)-2,5-Diaza-bicyclo[2.2.1]heptan-2-yl)phenyl)-3-(4-fluoro-3-methoxyphenyl)-2-(pyridin-4-yl)pyrazolo[1,5-a]pyrimidine]
23 | 0.6 | CCN1C2CCC1CC(c1ccnc3c(-c4ccc(Cl)c(O)c4)c(-c4ccncc4)nn13)C2 (stereo not drawn) [Example 18, 2-Chloro-5-[7-(8-ethyl-8-azabicyclo[3.2.1]oct-3-yl)-2-pyridin-4-ylpyrazolo[1,5-a]pyrimidin-3-yl]phenol]
24 | 21 | COc1cc(-c2c(-c3ccncc3)nn3c(-c4ccc(N5C[C@@H]6C[C@H]5CN6C)cc4)ccnc23)ccc1F [Example 37, 3-(4-Fluoro-3-methoxyphenyl)-7-(4-((1S,4S)-5-methyl-2,5-diazabicyclo[2.2.1]heptan-2-yl)phenyl)-2-(pyridin-4-yl)pyrazolo[1,5-a]pyrimidine]
